From paper PMC11233931, “Remodeling tumor‐associated macrophage for anti‐cancer effects by rational design of irreversible inhibition of mitogen‐activated protein kinase‐activated protein kinase 2” (MedComm, 2024)

Assays:
Assay in all cases: Eurofins kinase selectivity profile against 380 other human recombinant kinases (Table S2)
Type in all cases: biochemical
[1] = target: T1, 380 human recombinant protein kinases (Homo sapiens, UniProt P48729); details: CK1α(h), read-out: Inhibition rate
T1 construct: purchased Eurofins (Celle Lévescault)
T1 sequence (P48729 whole entry): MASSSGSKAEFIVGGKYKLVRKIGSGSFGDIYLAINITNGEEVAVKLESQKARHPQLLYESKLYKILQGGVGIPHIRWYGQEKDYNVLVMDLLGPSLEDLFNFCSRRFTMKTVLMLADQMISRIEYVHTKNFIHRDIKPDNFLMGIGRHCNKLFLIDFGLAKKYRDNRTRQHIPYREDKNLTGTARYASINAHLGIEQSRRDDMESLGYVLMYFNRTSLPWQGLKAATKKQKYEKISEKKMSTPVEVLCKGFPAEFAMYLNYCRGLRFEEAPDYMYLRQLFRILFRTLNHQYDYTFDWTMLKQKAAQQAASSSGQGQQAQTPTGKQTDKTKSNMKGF
Method in brief: (§1)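 Commercial selectivity screen of the test compound against a panel of 380 human recombinant protein kinases, run by an outside contractor at several compound concentrations to check whether its potency was specific for MK2.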

[2] = target: T2, 380 human recombinant protein kinases (Homo sapiens, UniProt Q15139); details: PKCμ(h), read-out: Inhibition rate
T2 construct: purchased Eurofins (Celle Lévescault)
T2 sequence (Q15139 1-912): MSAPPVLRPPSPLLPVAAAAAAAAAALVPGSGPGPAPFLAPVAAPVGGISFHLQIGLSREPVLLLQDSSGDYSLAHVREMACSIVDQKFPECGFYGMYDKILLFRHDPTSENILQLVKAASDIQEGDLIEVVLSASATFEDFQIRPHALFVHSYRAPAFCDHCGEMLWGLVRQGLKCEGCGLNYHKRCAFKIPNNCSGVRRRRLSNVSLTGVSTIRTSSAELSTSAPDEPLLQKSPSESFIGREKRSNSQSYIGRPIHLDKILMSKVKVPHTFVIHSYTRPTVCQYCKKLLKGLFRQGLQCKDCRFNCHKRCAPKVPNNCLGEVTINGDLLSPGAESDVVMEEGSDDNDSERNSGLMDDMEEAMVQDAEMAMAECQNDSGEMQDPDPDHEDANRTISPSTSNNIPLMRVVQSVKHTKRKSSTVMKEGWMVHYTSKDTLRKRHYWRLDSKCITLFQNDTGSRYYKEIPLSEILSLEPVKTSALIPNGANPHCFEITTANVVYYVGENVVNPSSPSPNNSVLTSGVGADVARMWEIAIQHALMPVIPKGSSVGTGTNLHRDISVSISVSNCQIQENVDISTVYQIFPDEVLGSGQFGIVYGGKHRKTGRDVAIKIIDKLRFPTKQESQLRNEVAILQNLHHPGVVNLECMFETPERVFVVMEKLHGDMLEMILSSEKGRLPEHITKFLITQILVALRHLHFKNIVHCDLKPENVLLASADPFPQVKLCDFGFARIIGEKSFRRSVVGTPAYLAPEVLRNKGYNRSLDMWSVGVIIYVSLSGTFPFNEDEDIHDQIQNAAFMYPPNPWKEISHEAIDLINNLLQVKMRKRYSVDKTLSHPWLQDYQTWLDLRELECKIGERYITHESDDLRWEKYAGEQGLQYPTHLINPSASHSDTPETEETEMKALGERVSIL
Method in brief: as §1

[3] = target: T3, 380 human recombinant protein kinases (Homo sapiens, UniProt Q16584); details: MLK3(h), read-out: Inhibition rate
T3 construct: purchased Eurofins (Celle Lévescault)
T3 sequence (Q16584 whole entry): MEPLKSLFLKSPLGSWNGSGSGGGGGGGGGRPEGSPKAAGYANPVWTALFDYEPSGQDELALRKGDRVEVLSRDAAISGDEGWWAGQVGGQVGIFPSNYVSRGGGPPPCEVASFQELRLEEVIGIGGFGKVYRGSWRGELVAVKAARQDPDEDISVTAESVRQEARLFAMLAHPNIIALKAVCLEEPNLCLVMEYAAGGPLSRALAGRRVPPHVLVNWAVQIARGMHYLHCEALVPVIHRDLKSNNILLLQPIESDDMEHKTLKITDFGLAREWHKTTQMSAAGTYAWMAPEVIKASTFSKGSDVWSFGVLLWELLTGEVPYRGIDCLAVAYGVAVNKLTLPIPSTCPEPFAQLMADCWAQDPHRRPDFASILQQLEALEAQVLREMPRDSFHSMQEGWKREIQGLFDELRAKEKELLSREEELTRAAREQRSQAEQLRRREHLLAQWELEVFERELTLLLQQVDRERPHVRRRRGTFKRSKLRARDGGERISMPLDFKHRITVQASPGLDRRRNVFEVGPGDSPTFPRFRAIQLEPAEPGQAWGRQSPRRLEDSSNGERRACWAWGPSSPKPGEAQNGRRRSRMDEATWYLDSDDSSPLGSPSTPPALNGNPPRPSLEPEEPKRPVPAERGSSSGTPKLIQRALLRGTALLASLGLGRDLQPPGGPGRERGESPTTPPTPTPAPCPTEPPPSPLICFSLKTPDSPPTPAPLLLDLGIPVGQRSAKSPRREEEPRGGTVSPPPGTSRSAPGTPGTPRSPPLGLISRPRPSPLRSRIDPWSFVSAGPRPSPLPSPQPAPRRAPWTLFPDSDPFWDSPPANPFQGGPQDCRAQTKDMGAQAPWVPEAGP
Method in brief: as §1

[4] = target: T4, 380 human recombinant protein kinases (Homo sapiens, UniProt Q13188); details: MST2(h), read-out: Inhibition rate
T4 construct: purchased Eurofins (Celle Lévescault)
T4 sequence (Q13188 1-491): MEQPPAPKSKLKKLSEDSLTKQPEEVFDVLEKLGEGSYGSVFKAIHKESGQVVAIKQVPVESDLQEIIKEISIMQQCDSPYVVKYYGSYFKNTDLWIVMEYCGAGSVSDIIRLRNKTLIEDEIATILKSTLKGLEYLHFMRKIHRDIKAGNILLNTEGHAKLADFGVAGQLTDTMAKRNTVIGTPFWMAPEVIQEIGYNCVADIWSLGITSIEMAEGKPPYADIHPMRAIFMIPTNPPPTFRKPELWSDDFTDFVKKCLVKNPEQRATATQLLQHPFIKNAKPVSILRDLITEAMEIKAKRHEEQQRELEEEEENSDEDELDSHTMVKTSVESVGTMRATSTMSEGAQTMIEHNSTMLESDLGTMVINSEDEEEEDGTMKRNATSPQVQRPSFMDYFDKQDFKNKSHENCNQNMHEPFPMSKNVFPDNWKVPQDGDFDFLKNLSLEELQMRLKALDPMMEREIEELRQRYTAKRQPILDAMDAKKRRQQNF
Method in brief: as §1

[5] = target: T5, 380 human recombinant protein kinases (Homo sapiens, UniProt Q9H2X6); details: HIPK2(h), read-out: Inhibition rate
T5 construct: purchased Eurofins (Celle Lévescault)
T5 sequence (Q9H2X6 whole entry): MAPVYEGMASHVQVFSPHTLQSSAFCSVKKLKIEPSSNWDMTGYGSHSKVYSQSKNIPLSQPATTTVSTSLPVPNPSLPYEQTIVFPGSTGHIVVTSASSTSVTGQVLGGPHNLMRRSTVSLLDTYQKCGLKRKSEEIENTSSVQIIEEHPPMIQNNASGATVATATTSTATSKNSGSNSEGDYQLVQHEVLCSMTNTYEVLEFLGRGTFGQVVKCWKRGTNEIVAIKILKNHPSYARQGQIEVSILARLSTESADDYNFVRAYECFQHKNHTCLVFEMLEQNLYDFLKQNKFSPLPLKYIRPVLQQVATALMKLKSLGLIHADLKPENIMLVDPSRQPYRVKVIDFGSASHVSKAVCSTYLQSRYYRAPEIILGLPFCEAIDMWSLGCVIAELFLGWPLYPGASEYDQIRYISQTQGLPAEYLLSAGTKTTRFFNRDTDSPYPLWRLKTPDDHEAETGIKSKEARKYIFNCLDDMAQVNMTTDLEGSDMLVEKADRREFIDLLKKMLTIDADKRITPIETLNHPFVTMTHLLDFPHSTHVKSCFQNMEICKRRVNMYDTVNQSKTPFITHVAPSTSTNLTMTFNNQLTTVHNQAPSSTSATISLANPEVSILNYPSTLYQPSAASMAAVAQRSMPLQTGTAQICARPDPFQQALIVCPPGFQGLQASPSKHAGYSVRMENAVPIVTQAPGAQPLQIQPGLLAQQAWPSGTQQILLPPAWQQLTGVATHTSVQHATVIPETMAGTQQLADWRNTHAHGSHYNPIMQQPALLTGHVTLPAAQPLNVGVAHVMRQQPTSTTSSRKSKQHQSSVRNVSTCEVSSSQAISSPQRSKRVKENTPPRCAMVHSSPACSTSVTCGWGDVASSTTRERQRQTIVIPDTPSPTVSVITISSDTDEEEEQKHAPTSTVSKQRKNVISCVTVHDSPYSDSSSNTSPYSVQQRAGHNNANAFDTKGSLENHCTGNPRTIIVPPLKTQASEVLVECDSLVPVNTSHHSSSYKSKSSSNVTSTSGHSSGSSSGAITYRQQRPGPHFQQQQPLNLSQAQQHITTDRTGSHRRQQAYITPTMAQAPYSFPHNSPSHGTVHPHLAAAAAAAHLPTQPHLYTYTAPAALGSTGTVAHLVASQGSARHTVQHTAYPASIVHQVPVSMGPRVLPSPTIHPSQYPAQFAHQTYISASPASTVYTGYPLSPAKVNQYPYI
Method in brief: as §1

[6] = target: T6, 380 human recombinant protein kinases (Homo sapiens, UniProt Q96BR1); details: SGK3(h), read-out: Inhibition rate (%)
T6 construct: purchased Eurofins (Celle Lévescault)
T6 sequence (Q96BR1 1-496): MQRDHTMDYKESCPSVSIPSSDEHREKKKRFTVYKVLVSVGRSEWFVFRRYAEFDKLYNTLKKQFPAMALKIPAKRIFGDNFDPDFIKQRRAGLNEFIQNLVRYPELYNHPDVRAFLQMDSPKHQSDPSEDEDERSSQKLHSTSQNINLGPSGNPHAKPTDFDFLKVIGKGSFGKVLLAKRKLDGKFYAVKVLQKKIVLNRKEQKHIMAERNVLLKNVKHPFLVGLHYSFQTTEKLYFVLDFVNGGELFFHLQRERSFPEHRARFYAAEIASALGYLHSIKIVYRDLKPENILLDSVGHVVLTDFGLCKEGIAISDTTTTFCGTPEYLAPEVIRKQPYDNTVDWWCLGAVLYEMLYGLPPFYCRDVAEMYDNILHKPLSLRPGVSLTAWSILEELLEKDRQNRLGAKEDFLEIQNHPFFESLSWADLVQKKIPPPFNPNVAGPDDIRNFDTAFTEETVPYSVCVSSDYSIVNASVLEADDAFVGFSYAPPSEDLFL
Method in brief: as §1

[7] = target: T7, 380 human recombinant protein kinases (Homo sapiens, UniProt P45984); details: JNK2α2(h), read-out: Inhibition rate
T7 construct: purchased Eurofins (Celle Lévescault)
T7 sequence (P45984 whole entry): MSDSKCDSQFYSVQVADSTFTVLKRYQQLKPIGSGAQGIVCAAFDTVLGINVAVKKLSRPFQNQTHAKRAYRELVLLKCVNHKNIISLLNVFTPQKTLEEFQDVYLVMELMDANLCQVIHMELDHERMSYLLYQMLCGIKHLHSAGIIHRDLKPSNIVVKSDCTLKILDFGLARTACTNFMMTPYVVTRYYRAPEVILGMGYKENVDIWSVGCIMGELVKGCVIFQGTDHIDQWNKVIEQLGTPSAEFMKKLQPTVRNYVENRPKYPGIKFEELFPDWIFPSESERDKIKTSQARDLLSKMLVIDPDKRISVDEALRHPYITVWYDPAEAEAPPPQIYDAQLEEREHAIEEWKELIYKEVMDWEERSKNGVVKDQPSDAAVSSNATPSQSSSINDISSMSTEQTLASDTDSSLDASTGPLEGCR
Method in brief: as §1

[8] = target: T8, 380 human recombinant protein kinases (Homo sapiens, UniProt P54764); details: EphA4(h), read-out: Inhibition rate
T8 construct: purchased Eurofins (Celle Lévescault)
T8 sequence (P54764 20-986): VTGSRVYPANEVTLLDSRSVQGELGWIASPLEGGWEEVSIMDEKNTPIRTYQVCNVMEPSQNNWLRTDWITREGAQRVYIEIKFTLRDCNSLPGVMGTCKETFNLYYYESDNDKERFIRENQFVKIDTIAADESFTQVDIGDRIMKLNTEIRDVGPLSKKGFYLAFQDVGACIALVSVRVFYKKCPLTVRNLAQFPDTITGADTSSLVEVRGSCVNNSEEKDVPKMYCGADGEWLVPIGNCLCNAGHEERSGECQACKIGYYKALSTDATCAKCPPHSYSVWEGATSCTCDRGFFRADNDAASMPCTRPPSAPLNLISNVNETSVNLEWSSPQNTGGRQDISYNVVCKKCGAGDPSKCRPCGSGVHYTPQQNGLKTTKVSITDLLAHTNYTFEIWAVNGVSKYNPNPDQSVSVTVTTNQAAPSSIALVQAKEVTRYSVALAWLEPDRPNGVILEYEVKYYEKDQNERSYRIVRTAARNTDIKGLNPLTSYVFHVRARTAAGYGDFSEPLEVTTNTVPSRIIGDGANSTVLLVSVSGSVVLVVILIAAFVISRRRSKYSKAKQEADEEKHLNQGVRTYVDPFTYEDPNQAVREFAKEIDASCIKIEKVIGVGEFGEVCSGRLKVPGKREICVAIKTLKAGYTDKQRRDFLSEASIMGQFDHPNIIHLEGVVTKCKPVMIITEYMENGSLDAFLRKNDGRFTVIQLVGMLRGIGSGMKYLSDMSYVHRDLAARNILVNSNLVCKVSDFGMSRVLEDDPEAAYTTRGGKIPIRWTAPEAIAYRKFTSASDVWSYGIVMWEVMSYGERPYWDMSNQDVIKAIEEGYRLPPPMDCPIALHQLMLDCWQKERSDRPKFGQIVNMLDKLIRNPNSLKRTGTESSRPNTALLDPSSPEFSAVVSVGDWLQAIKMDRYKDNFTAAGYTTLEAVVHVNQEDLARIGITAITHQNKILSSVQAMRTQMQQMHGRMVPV
Method in brief: as §1

Molecule C=CC(=O)Nc1cc(-c2cc(-c3cc4c([nH]3)CCNC4=O)ccn2)ccc1OC(F)(F)F [compound 11] has an inhibition at 0.01 µM ([1]; 10 nM) of 15%, an inhibition at 0.1 µM ([1]; 100 nM) of 30% and an inhibition at 1 µM ([1]; 1000 nM) of 70%. The inhibition at 0.01 µM ([2]; 10 nM) was -6%, the inhibition at 0.1 µM ([2]; 100 nM) was 13% and the inhibition at 1 µM ([2]; 1000 nM) was 45%. For the same molecule, the inhibition at 0.01 µM ([3]; 10 nM) was -2%, the inhibition at 0.1 µM ([3]; 100 nM) was 8% and the inhibition at 1 µM ([3]; 1000 nM) was 43%. It also gave an inhibition at 0.01 µM ([4]; 10 nM) of -7%, an inhibition at 0.1 µM ([4]; 100 nM) of 0% and an inhibition at 1 µM ([4]; 1000 nM) of 6%. It also gave an inhibition at 0.01 µM ([5]; 10 nM) of -13%, an inhibition at 0.1 µM ([5]; 100 nM) of -9% and an inhibition at 1 µM ([5]; 1000 nM) of 3%. For the same molecule, the inhibition at 0.01 µM ([6]; 10 nM) was -8%, the inhibition at 0.1 µM ([6]; 100 nM) was 2% and the inhibition at 1 µM ([6]; 1000 nM) was -4%. The inhibition at 0.01 µM ([7]; 10 nM) was -6%, the inhibition at 0.1 µM ([7]; 100 nM) was 5% and the inhibition at 1 µM ([7]; 1000 nM) was 23%. The inhibition at 0.01 µM ([8]; 10 nM) was -1%, the inhibition at 0.1 µM ([8]; 100 nM) was 3% and the inhibition at 1 µM ([8]; 1000 nM) was -7%.
